Assays:
[1] = Absorbance and emission spectra in aqueous buffer with Triton X-100; assay type: physicochemical; conditions: 5 mM sodium phosphate, pH 9, 0.1% Triton X-100
Experimental: FIG. 8A, FIG. 8B, and FIG. 8C show the normalized absorbance and emission spectra for exemplary compounds of the invention in 5 mM sodium phosphate, pH 9 with 0.1% Triton X-100. Black lines are absorbance spectra; grey lines are emission spectra. a) VF1.4.Cl, b) VF2.4.Cl, and c) VF2.1.Cl.
All dyes feature emission and excitation profiles typical of dichlorofluoresceins (VF1.4.Cl: λmax=521 nm, ε=93,000 M^−1·cm^−1, λem=534 nm, Φ=0.24; VF2.4.Cl: λmax=522 nm, ε=97,000 M^−1·cm^−1, λem=536 nm, Φ=0.054; VF2.1.Cl: λmax=522 nm, ε=98 000 M^−1·cm^−1, λcm=535 nm, Φ=0.057, 5 mM sodium phosphate, pH 9, 0.1% Triton X-100) (FIG. 8).
UV absorbance and fluorescence spectra were recorded on a Cary 3E (Varian) and Fluorolog 2 (Spex) fluorimeter, respectively. Analytical, semi-preparative, and preparative HPLCs were performed on Agilent HPLCs, with Luna C18(2) columns (Phenomenex) using water (solvent A) and acetonitrile (solvent B) with 0.05% TFA as an additive. Low resolution ESI mass spectrometry was performed on an Agilent LC/MSD Trap XCT coupled to an Agilent HPLC. High resolution mass spectra were acquired on a ThermoFisher Orbitrap XL hybrid mass spectrometer. ^1H NMR spectra were collected in CDCl3 or d6-DMSO (Cambridge Isotope Laboratories, Cambridge, Mass.) at 25° C. on a 400 Varian Mercury Plus or Jeol ECA 500 spectrometer at the Department of Chemistry and Biochemistry NMR Facility at the University of California, San Diego. All chemical shifts are reported in the standard δ notation of parts per million using the peak of residual proton signals of CDCl3 or d6-DMSO as an internal reference.

HEK cells = assay: Bleach rate in HEK cells; assay type: cell-based, human; conditions: for bleach rate: HEK cells, 7 W/cm^2; for bleach rate, fold smaller than di-4-ANEPPS: identical illumination conditions
Experimental: The dibutyl (VFx.4.Cl) dyes stain the cell membranes of HEK293 cells when loaded at a concentration of 2 μM for 15 min at 37° C. in buffer with 0.1% DMSO as cosolvent (FIG. 9A, and FIG. 10). […] The bleach rates of the probes were tested in HEK cells and compared with di-4-ANEPPS. The bleach rates for VF1.4.Cl, VF2.4.Cl, and VF2.1.Cl at 7 W/cm^2 were measured to be 3.9±0.1×10^−2 s^−1, 1.8±0.1×10^−2 s^−1, and 8.0±0.1×10^−3 s^−1, respectively.
For studies to determine excitation sensitivity of dyes, illumination was provided by a Polychrom IV light source (T.I.L.L. Photonics GMBH) with a mechanical shutter (Uniblitz VS25). For all other studies, light was provided by an Xenon arc lamp powered by an Optiquip Power supply (Optiquip) with a mechanical shutter controlled by a Lambda 10-2 controller (Sutter). Light from the Xenon arc lamp was filtered through a 480 nm filter (30 nm bandpass, Chroma), a 510 nm dichroic (Semrock), a 530 nm emission filter (50 nm bandpass, Semrock), and focused through a 40×/1.4 oil objective. For di-4-ANEPPS imaging, a 625 nm emission filter with a 50 nm bandpass was used. Bleaching studies used identical illumination conditions (480/30 nm excitation, 510 nm dichroic, 7 W/cm^2 output) and were corrected by normalizing for the extinction coefficient at the excitation wavelengths (465-495 nm).

CN(C)c1ccc(/C=C/c2ccc(/C=C/c3ccc(-c4c5cc(Cl)c(=O)cc-5oc5cc(O)c(Cl)cc45)c(S(=O)(=O)O)c3)cc2)cc1 [VF2.1.Cl, 5-(4-(4-(dimethyllamino)styryl)styryl)-2-(2,7-dichloro-6-hydroxy-3-oxo-3H-xanthen-9-yl)benzenesulfonic acid]
Φ [1]: 0.057 | ε [1]: 98 000 M^−1·cm^−1 | λem [1]: 535 nm | λmax [1]: 522 nm | bleach rate (HEK cells): 8.0±0.1×10^−3 s^−1 | bleach rate, fold smaller than di-4-ANEPPS (HEK cells): ninefold smaller

CCCCN(CCCC)c1ccc(/C=C/c2ccc(/C=C/c3ccc(-c4c5cc(Cl)c(=O)cc-5oc5cc(O)c(Cl)cc45)c(S(=O)(=O)O)c3)cc2)cc1 [VF2.4.Cl, 5-(4-(4-(dibutylamino)styryl)styryl)-2-(2,7-dichloro-6-hydroxy-3-oxo-3H-xanthen-9-yl)benzenesulfonic acid]
Φ [1]: 0.054 | ε [1]: 97,000 M^−1·cm^−1 | λem [1]: 536 nm | λmax [1]: 522 nm | bleach rate (HEK cells): 1.8±0.1×10^−2 s^−1 | bleach rate, fold smaller than di-4-ANEPPS (HEK cells): four-
